Experimental data from patent US20130165368A1, “ANTIMICROBIAL COMPOUNDS” (priority 2010, published 2013).
Converted amounts (≈) assume the structure as drawn. Read-outs that look alike come from different tables or passages of the source.

How the values were obtained:
Assay type in all cases: cell-based
Escherichia coli = assay: MIC agar dilution, micro-organism 1 (10418); conditions: Escherichia coli 10418
Protocol: (§1) Throughout the period of testing the microbial strains were subcultured and incubated for 18-20 hours at 37° C. on a weekly basis. Horse blood agar plates were used to sustain the micro-organisms both prior to and throughout testing. The alkoxylated alkanols listed in Table II below were obtained (these are obtainable from Sigma-Aldrich Company Ltd, Dorset, England), each having a GC purity of at least 97%.
(§2) Molar equivalent concentrations were used to allow comparison between compounds of differing molecular mass. Due to weighing difficulties, any compound in solid form was melted in a water bath prior to dilution. To make ten-times strength concentrations, which takes into account agar dilution, 0.0352 mmol of each compound was weighed into plastic universal bottles and 4 mL of sterile distilled water (SDW) was added. To produce a homogenous emulsion the universals were vortexed; once achieved the emulsions were serial diluted by adding 2 mL to 2 mL of SDW.
(§3) Myristyl alcohol and lauryl alcohol were re-weighed and dissolved in 25 μL of the polar solvent 1-methyl-2-pyrrolidone (M6762; Sigma-Aldrich) in sterile glass universals due to an inability to achieve an even suspension. To maintain an even emulsion in the presence of SDW 37.5 μL of the non-ionic detergent Tween 20 (P1379, Sigma-Aldrich) was also added. 3.9375 mL of SDW was added to these, to create a 4 mL volume; they were vortexed and diluted as before.
(§4) For every 100 mL of Isosensitest agar (IST) (CM0471; Oxoid, Basingstoke, England), 3.1 g of the IST powder was added to 100 mL SDW (as per manufacturer's instructions) and sterilised for 15 minutes at 121° C. Once sterilised, the molten agar was cooled to 50° C. in a water-bath. Subsequently 4.8 g of CCEY powder (BC2160; Bioconnections, Wetherby, England), also known as Brazier's medium, was added to 100 mL SDW for every 100 mL of agar needed. This was then sterilised for 15 minutes at 121° C. Once sterilised the molten agar was cooled to 50° C. in a water-bath and 4 mL of egg-yolk emulsion (S2073; TCS Biosciences Ltd, Buckingham, United Kingdom) and 1 mL of lysed defibrinated horse blood (HB035; TCS Biosciences Ltd, Buckingham, United Kingdom) were also added for every 100 mL needed. Horse blood lysis is achieved by dilution to half concentration with SDW; when fully lysed the mixture will turn dark red in colour.
(§5) 18 mL agar was added to each universal and then poured into sterile Petri dishes. This step creates a 1/10 dilution resulting in agar plates of the required strength. Control plates for each set of strains were created by adding 18 mL of agar to 2 mL of SDW.
(§6) Suspensions of each bacterial species were prepared with a density equal to that of a 0.5 McFarland standard using a densitometer. All suspensions were made using sterile distilled water and fresh 18-20 hour cultures. As a 0.5 McFarland standard contains 1.5×10^8 CFU/mL and the multipoint inoculators applies 1 μL spots of liquid, each bacterial suspension was diluted 1/15 (20 μL suspension to 280 μL sterile distilled water).
(§7) Bacterial suspensions were prepared from fresh 18-24 hour cultures as previously described. 1 μL of each strain was inoculated onto all 100 agar plates containing a different chemical concentration and the 2 control plates. This was done using a multipoint inoculator which inoculates 20 strains per plate. All plates were incubated for 22 hours at 37° C. in aerobic conditions.
(§8) Each plate was examined for bacterial growth after 22 and 48 hours, with each being incubated in between examinations. A positive result was recorded as growth of ≧10 colonies. A negative result was recorded as growth of <10 colonies as this is equivalent to 99.9% inhibition. The lowest concentration of chemical that inhibited growth was recorded as the MIC. The results are recorded in Table IV below, where the numbers are quoted in mmol/L. […]

Providencia rettgeri = assay: MIC agar dilution, micro-organism 3 (7475); conditions: Providencia rettgeri 7475
Protocol: as §1, §2, §3, §4, §5, §6, §7, §8

Steptococcus pyogenes = assay: MIC agar dilution, micro-organism 11 (8306); conditions: Steptococcus pyogenes 8306
Protocol: as §1, §2, §3, §4, §5, §6, §7, §8

[1] = system: Staphylococcus aureus (MRSA); assay: MIC agar dilution, micro-organism 12 (11939); conditions: Staphylococcus aureus (MRSA) 11939
Protocol: as §1, §2, §3, §4, §5, §6, §7, §8

Staphylococcus aureus = assay: MIC agar dilution, micro-organism 13 (6571); conditions: Staphylococcus aureus 6571
Protocol: as §1, §2, §3, §4, §5, §6, §7, §8

[2] = system: Staphylococcus epidermidis; assay: MIC agar dilution, micro-organism 14 (11047); conditions: Staphylococcus epidermidis 11047
Protocol: as §1, §2, §3, §4, §5, §6, §7, §8

Listeria monocytogenes = assay: MIC agar dilution, micro-organism 15 (11994); conditions: Listeria monocytogenes 11994
Protocol: as §1, §2, §3, §4, §5, §6, §7, §8

Enterococcus faecium = assay: MIC agar dilution, micro-organism 16 (7171); conditions: Enterococcus faecium 7171
Protocol: as §1, §2, §3, §4, §5, §6, §7, §8

Enterococcus faecalis = assay: MIC agar dilution, micro-organism 17 (775); conditions: Enterococcus faecalis 775
Protocol: as §1, §2, §3, §4, §5, §6, §7, §8

Bacillus subtilis = assay: MIC agar dilution, micro-organism 18 (9372); conditions: Bacillus subtilis 9372
Protocol: as §1, §2, §3, §4, §5, §6, §7, §8

Candida albicans = assay: MIC agar dilution, micro-organism 19 (90028); conditions: Candida albicans 90028
Protocol: as §1, §2, §3, §4, §5, §6, §7, §8

Candida glabrata = assay: MIC agar dilution, micro-organism 20 (3943); conditions: Candida glabrata 3943
Protocol: as §1, §2, §3, §4, §5, §6, §7, §8

[3] = system: Gram negative bacteria, Gram positive bacteria and pathogenic yeasts; assay: MIC agar dilution, summary statements over the micro-organisms tested (Tables I, IX); conditions: over the micro-organisms tested or some of them; read-out: MIC
Text: For a better understanding, the present invention will now be more particularly described, by way of non-limiting example only, as follows. The micro-organisms shown in Table I overleaf were acquired from the National Collection of Type Cultures (NCTC), Colindale, United Kingdom; the American Type Culture Collection (ATCC), Manassas, United States and the National Collection of Pathogenic Fungi (NCPF), Colindale, United Kingdom. They include Gram negative bacteria, Gram positive bacteria and pathogenic yeasts.
as §1, §2, §3, §4, §5, §6
as §7, with “conditions. […]” for “conditions.”

[4] = Staphylococcus aureus, MRSA, 22 h, 22 hrs, read-out: MIC
[5] = Staphylococcus aureus, MRSA, 48 h, 48 hrs, read-out: MIC
[6] = Staphylococcus aureus, 22 h, 22 hrs, read-out: MIC
[7] = Staphylococcus aureus, 48 h, 48 hrs, read-out: MIC
[8] = Nakaseomyces glabratus, 22 h, 22 hrs, read-out: MIC
[9] = Nakaseomyces glabratus, 48 h, 48 hrs, read-out: MIC

## CCCCCCCCCCCCCCOCCOCCOCCOCCO [M4, Tetraethylene Glycol Monotetradecyl Ether]
Escherichia coli; 22 hrs, read-out: MIC
  MIC: > 880 µM
Escherichia coli; 48 hrs, read-out: MIC
  MIC: > 880 µM
Providencia rettgeri; 22 hrs, read-out: MIC
  MIC: > 880 µM
Providencia rettgeri; 48 hrs, read-out: MIC
  MIC: > 880 µM
Steptococcus pyogenes; 22 h, 22 hrs, read-out: MIC
  MIC: 27.5 µM (≈ 10.7 µg/mL)
Steptococcus pyogenes; 48 h, 48 hrs, read-out: MIC
  MIC: 27.5 µM (≈ 10.7 µg/mL)
[1]; [4]
  MIC: 110 µM (≈ 43 µg/mL)
[1]; [5]
  MIC: 110 µM (≈ 43 µg/mL)
Staphylococcus aureus; [6]
  MIC: 55 µM (≈ 21.5 µg/mL)
Staphylococcus aureus; [7]
  MIC: 55 µM (≈ 21.5 µg/mL)
[2]; 22 hrs, read-out: MIC
  MIC: 55 µM (≈ 21.5 µg/mL)
[2]; 48 hrs, read-out: MIC
  MIC: 110 µM (≈ 43 µg/mL)
Listeria monocytogenes; 22 hrs, read-out: MIC
  MIC: 440 µM (≈ 172 µg/mL)
Listeria monocytogenes; 48 hrs, read-out: MIC
  MIC: > 880 µM
Enterococcus faecium; 22 hrs, read-out: MIC
  MIC: > 880 µM
Enterococcus faecium; 48 hrs, read-out: MIC
  MIC: > 880 µM
Enterococcus faecalis; 22 hrs, read-out: MIC
  MIC: 220 µM (≈ 85.9 µg/mL)
Enterococcus faecalis; 48 hrs, read-out: MIC
  MIC: 220 µM (≈ 85.9 µg/mL)
Bacillus subtilis; 22 hrs, read-out: MIC
  MIC: 220 µM (≈ 85.9 µg/mL)
Bacillus subtilis; 48 hrs, read-out: MIC
  MIC: 220 µM (≈ 85.9 µg/mL)
Candida albicans; 22 hrs, read-out: MIC
  MIC: > 880 µM
Candida albicans; 48 hrs, read-out: MIC
  MIC: > 880 µM
Candida glabrata; [8]
  MIC: > 880 µM
Candida glabrata; [9]
  MIC: > 880 µM
[3]
  MIC: < 220 µM

## CCCCCCCCCCCCCCCCCCO [S0, 1-Octadecanol, reference compound]
Escherichia coli; 22 hrs, read-out: MIC
  MIC: > 880 µM
Escherichia coli; 48 hrs, read-out: MIC
  MIC: > 880 µM
Providencia rettgeri; 22 hrs, read-out: MIC
  MIC: > 880 µM
Providencia rettgeri; 48 hrs, read-out: MIC
  MIC: > 880 µM
Steptococcus pyogenes; 22 h, 22 hrs, read-out: MIC
  MIC: 880 µM (≈ 238 µg/mL)
Steptococcus pyogenes; 48 h, 48 hrs, read-out: MIC
  MIC: 880 µM (≈ 238 µg/mL)
[1]; [4]
  MIC: > 880 µM
[1]; [5]
  MIC: > 880 µM
Staphylococcus aureus; [6]
  MIC: > 880 µM
Staphylococcus aureus; [7]
  MIC: > 880 µM
[2]; 22 hrs, read-out: MIC
  MIC: > 880 µM
[2]; 48 hrs, read-out: MIC
  MIC: > 880 µM
Listeria monocytogenes; 22 hrs, read-out: MIC
  MIC: > 880 µM
Listeria monocytogenes; 48 hrs, read-out: MIC
  MIC: > 880 µM
Enterococcus faecium; 22 hrs, read-out: MIC
  MIC: > 880 µM
Enterococcus faecium; 48 hrs, read-out: MIC
  MIC: > 880 µM
Enterococcus faecalis; 22 hrs, read-out: MIC
  MIC: > 880 µM
Enterococcus faecalis; 48 hrs, read-out: MIC
  MIC: > 880 µM
Bacillus subtilis; 22 hrs, read-out: MIC
  MIC: > 880 µM
Bacillus subtilis; 48 hrs, read-out: MIC
  MIC: > 880 µM
Candida albicans; 22 hrs, read-out: MIC
  MIC: > 880 µM
Candida albicans; 48 hrs, read-out: MIC
  MIC: > 880 µM
Candida glabrata; [8]
  MIC: 880 µM (≈ 238 µg/mL)
Candida glabrata; [9]
  MIC: 880 µM (≈ 238 µg/mL)

## CCCCCCCCCCCCCCCCOCCOCCO [C2]
Escherichia coli; 22 hrs
  MIC: >880 µM
Escherichia coli; 48 hrs
  MIC: >880 µM
Providencia rettgeri; 22 hrs
  MIC: >880 µM
Providencia rettgeri; 48 hrs
  MIC: >880 µM
Steptococcus pyogenes; 22 hrs
  MIC: 880 µM (≈ 291 µg/mL)
Steptococcus pyogenes; 48 hrs
  MIC: >880 µM
[1]; 22 hrs
  MIC: >880 µM
[1]; 48 hrs
  MIC: >880 µM
Staphylococcus aureus; 22 hrs
  MIC: >880 µM
Staphylococcus aureus; 48 hrs
  MIC: >880 µM
[2]; 22 hrs
  MIC: >880 µM
[2]; 48 hrs
  MIC: >880 µM
Listeria monocytogenes; 22 hrs
  MIC: >880 µM
Listeria monocytogenes; 48 hrs
  MIC: >880 µM
Enterococcus faecium; 22 hrs
  MIC: >880 µM
Enterococcus faecium; 48 hrs
  MIC: >880 µM
Enterococcus faecalis; 22 hrs
  MIC: >880 µM
Enterococcus faecalis; 48 hrs
  MIC: >880 µM
Bacillus subtilis; 22 hrs
  MIC: >880 µM
Bacillus subtilis; 48 hrs
  MIC: >880 µM
Candida albicans; 22 hrs
  MIC: >880 µM
Candida albicans; 48 hrs
  MIC: >880 µM
Candida glabrata; 22 hrs
  MIC: 880 µM (≈ 291 µg/mL)
Candida glabrata; 48 hrs
  MIC: >880 µM
